# Results as given in patent publication US5480905A, “Benzodioxane derivatives” (Chugai Seiyaku Kabushiki Kaisha, priority 1991, dated 1996).
# Test system: S.D. line male rats
# Assay: Antianxiety effect, water drinking under punishment (Vogel)
# Type: in vivo, rat
# Parameters: Antianxiety effect / Antianxiety effect, longevity: unit not given here
# Details: for change in vivo at 20 mg/kg: Rattus norvegicus, po, read-out: Antianxiety effect, Efficacy
# Experimental: Antianxiety test was conducted in accordance with a method adapted from the method of Vogel et al. (Psychopharmacol., 21, 1-7, 1971). Stated more specifically, S.D. line male rats weighing 250-300 g were entirely kept from water for 24 h and then placed in a concrete experimental box. […] The bottom of the box was made of a stainless steel grid, from which electric shock (0.2 mA, 0.5 sec) could be applied to the limbs of rats. The test schedule was as follows: first, the rats were acclimatized to the experimental box and trained for drinking water; this was done for 3 min without electric shock. The quantity of water drunk by the rats was then measured (under non-punishment). Then, the rats were kept from drinking water for 24 h. Thereafter, the quantity of water drunk by each rat was measured (before administration of test compound) under such conditions that an electric shock was applied each time a rat drank one water drop (under punishment).Thirty minutes later, a test drug was administered perorally and after an additional 20 min, the quantity of water drunk by each rat was again measured under punishment (after administration of test compound). The quantity of water drunk by rats will decrease under punishment but it is known that the initial level can be restored by administering an antianxiety agent.
# The antianxiety effect of a test compound was calculated by the following formula: [formula]
# The procedure of Test Examples 2 and 3 were repeated except that test compounds were administered perorally in a dose of 10 mg/kg.
# The procedures of Test Example 2 and 3 were repeated, except that test compounds were administered perorally in a dose of 20 mg/kg to check the longevity of their antianxiety and antidepressant effects for 0.5, 2 and 4 h.
# [1] = peroral 20 mg/kg, 0.5 h after administration
# [2] = peroral 20 mg/kg, 2.0 h after administration
# [3] = peroral 20 mg/kg, 4.0 h after administration
smiles,measurement,setting,value
"Cc1cccc2c1OC(CNCCNC(=O)C13CC4CC(CC(C4)C1)C3)CO2 (centres unmarked) [Compound 1, N-{[2-(8-methyl-1,4-benzodioxan-2-ylmethyl)amino]ethyl}tricyclo[3,3,1,1^3, ^7]decane-1-carboxyamide]",change in vivo at 20 mg/kg,peroral 20 mg/kg,85.4 ± 10.3%
same,Antianxiety effect,peroral 10 mg/kg,42.4 ± 2.1
same,Antianxiety and antidepressant effects,"peroral 10 mg/kg, Table 6",superiority
same,Antianxiety effect,peroral 20 mg/kg,better effects than MDL-73005
same,"Antianxiety effect, longevity",[1],52.8
same,"Antianxiety effect, longevity",[2],48.2
same,"Antianxiety effect, longevity",[3],29.5
"O=C(NCCN1CCN(c2ncccn2)CC1)C12CC3CC(CC(C3)C1)C2 [WY-50324, reference compound]",change in vivo at 20 mg/kg,peroral 20 mg/kg,46.9 ± 6.3%
same,"Antianxiety effect, longevity",[1],57.8
same,"Antianxiety effect, longevity",[2],24.8
same,"Antianxiety effect, longevity",[3],11.2
